For the assay, the target named is T1, Enoyl-[acyl-carrier-protein] reductase [NADPH] FabI (Staphylococcus aureus (strain MRSA252), UniProt Q6GI75).
T1 sequence (Q6GI75 whole entry): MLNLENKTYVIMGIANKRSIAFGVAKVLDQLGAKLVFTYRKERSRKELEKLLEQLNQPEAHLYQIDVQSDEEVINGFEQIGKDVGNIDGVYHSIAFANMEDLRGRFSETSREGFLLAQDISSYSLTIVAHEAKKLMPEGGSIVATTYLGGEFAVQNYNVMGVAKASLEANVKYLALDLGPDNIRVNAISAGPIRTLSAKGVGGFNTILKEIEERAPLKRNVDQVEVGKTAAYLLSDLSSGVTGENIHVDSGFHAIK
Description: Tight-binding assay. The settings on record: pH 7.5.

One may read the Ki as the dissociation constant of the complex between target and ligand, obtained from inhibition or displacement.

As for `Cc1ccc(Oc2ccccc2)c(O)c1` [US10071965, Compound PT53], the Ki was determined as 494 nM.

Values taken from BindingDB's records for patent US10071965 (The State University of New York, 2018).
